{
  "source": "patent US20230406803A1",
  "about": "“TROPOLONE DERIVATIVES AND TAUTOMERS THEREOF FOR IRON REGULATION IN ANIMALS” (Kinesid Therapeutics, Inc, priority 2020, published 2023)",
  "key": {"[1]": {"test": "Ligand facilitated Fe(III) efflux from liposomes", "assay_type": "biochemical", "design": "unit not given here", "conditions": "efflux rate k at 10 μM ligand concentration; ferrozine absorbance 562 nm, 120 min kinetic read", "how_it_was_run": "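POPC/cholesterol liposomes loaded with Fe(III) citrate in MES/Tris pH 7.0, diluted to 1 mM phosphorus in ascorbate buffer with 1 mM ferrozine outside. Ligand at 1.25–40 µM; absorbance at 562 nm read every 60 s for 120 min. Efflux rate k fitted by single-phase association, averaged over triplicates, compared at 10 µM.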"}, "[2]": {"test": "Mouse 6-hour PK study", "conditions": "in vivo, mouse 6-hour PK", "from_the_text": "Useful such assays include, but are not limited to e.g., those measurements made in PK studies, such as rodent and non-human primate PK studies, including e.g., mouse (such as mouse 6-hour PK studies), rat PK studies, cynomolgus or rhesus PK studies, or the like. Useful measurements obtained in such PK studies include but are not limited to e.g., maximum concentration (Cmax) reflecting the “peak” of a drug observed after its administration that can reflect not only the rate but also the extent of absorption, area under the curve (AUC) representing the area under the plot of tissue (e.g., plasma) concentration against time after drug administration which is of particular use in estimating bioavailability of drugs and drug total clearance, half-life (t1/2) or the period of time required for the concentration or amount of drug to be reduced to exactly one-half of a given concentration or amount that indicates the persistence of the drug in its volume of distribution, and the like.\nSuch assessments included human and mouse liver microsomal stability assays as well as 6-hour mouse PK studies."}},
  "data": [
    {"smiles": "CC(C)c1cccc(=O)c(O)c1", "note": "[hinokitiol, reference compound]", "values": [
      {"measurement": "Liposome Fe transport kefflux at 10 μM", "setting": "[1]", "value": 7.77},
      {"measurement": "AUC(0-t)", "setting": "[2]; read-out: AUClast 0-6 hr", "value": 584, "unit": "ng·h/mL"},
      {"measurement": "Cmax", "setting": "[2]; read-out: Cmax", "value": 956, "unit": "ng/mL"},
      {"measurement": "half-life", "setting": "[2]; read-out: t1/2 (converted)", "value": 1.11, "unit": "h"}
    ]}
  ]
}
